In the CheMixHub viscosity set:

Experiment: xn = mol fraction of the nth substance listed

CCOC(=O)OCC + CC(C)OC(C)C
viscosity [mPa·s], 100 kPa
Conditions | x1 = 0.0986 | x1 = 0.1988 | x1 = 0.3012 | x1 = 0.4026 | x1 = 0.4998 | x1 = 0.5976 | x1 = 0.7008 | x1 = 0.8014 | x1 = 0.9009
303.15 K | 0.325 | 0.351 | 0.379 | 0.409 | 0.442 | 0.481 | 0.528 | 0.58 | 0.636
308.15 K | 0.309 | 0.332 | 0.359 | 0.387 | 0.419 | 0.455 | 0.497 | 0.546 | 0.599
313.15 K | 0.296 | 0.317 | 0.341 | 0.369 | 0.398 | 0.432 | 0.472 | 0.516 | 0.566

CC(C)[C@@H]1CC[C@@H](C)C[C@H]1O + CC(O)CCO
Conditions | viscosity [mPa·s]
298.15 K, 101.33 kPa, x1 = 0.5 | 140.3

CC(C)[C@@H]1CC[C@@H](C)C[C@H]1O + CC(O)CO
Conditions | viscosity [mPa·s]
298.15 K, 101.33 kPa, x1 = 0.5 | 81.72

CCCCCCCCCCO + CCC(C)=O
viscosity [mPa·s], 100 kPa
Conditions | x2 = 0.0798 | x2 = 0.1601 | x2 = 0.2392 | x2 = 0.3498 | x2 = 0.4401 | x2 = 0.5602 | x2 = 0.6496 | x2 = 0.7411 | x2 = 0.8502 | x2 = 0.9406
293.15 K | 11.4 | 8.94 | 7.3 | 5.65 | 4.57 | 3.24 | 2.34 | 1.68 | 1.01 | 0.6
303.15 K | 7.99 | 6.34 | 4.92 | 3.65 | 2.75 | 2 | 1.52 | 1.11 | 0.74 | 0.49
313.15 K | 5.31 | 4.24 | 3.39 | 2.42 | 1.88 | 1.39 | 1.1 | 0.82 | 0.58 | 0.4
323.15 K | 3.95 | 3.23 | 2.64 | 1.93 | 1.52 | 1.13 | 0.87 | 0.66 | 0.48 | 0.36

Cc1ccccc1C + CCC(C)O
308.15 K, 101 kPa
Conditions | viscosity [mPa·s]
x2 = 0.0648 | 0.655
x2 = 0.1275 | 0.663
x2 = 0.2083 | 0.681
x2 = 0.3048 | 0.679
x2 = 0.3787 | 0.715
x2 = 0.4323 | 0.742
x2 = 0.5015 | 0.796
x2 = 0.6005 | 0.879
x2 = 0.6944 | 1.048
x2 = 0.7978 | 1.265
x2 = 0.9485 | 1.751

OCCOCCOCCO + CCC(C)O
viscosity [mPa·s], 100 kPa
Conditions | x1 = 0.0808 | x1 = 0.1599 | x1 = 0.2399 | x1 = 0.35 | x1 = 0.44 | x1 = 0.5558 | x1 = 0.6502 | x1 = 0.7399 | x1 = 0.8502 | x1 = 0.94
293.15 K | 5.57 | 7.33 | 9.21 | 12.23 | 15.18 | 19.7 | 24.16 | 29.07 | 36.18 | 43.08
298.15 K | 4.23 | 5.59 | 7 | 9.31 | 11.53 | 14.96 | 18.37 | 22.16 | 27.73 | 33.06
303.15 K | 3.68 | 4.84 | 6.08 | 7.92 | 9.7 | 12.38 | 15.03 | 17.95 | 22.19 | 26.32
308.15 K | 3.18 | 4.17 | 5.17 | 6.64 | 7.98 | 10.05 | 12.09 | 14.34 | 17.76 | 21
313.15 K | 2.58 | 3.33 | 4.17 | 5.42 | 6.58 | 8.32 | 10.01 | 11.91 | 14.65 | 17.26
318.15 K | 2.26 | 3.02 | 3.79 | 4.92 | 5.92 | 7.37 | 8.75 | 10.23 | 12.32 | 14.31
323.15 K | 1.94 | 2.54 | 3.17 | 4.12 | 4.97 | 6.23 | 7.4 | 8.65 | 10.4 | 11.99

CC(C)[C@@H]1CC[C@@H](C)C[C@H]1O + CCC(O)CO
Conditions | viscosity [mPa·s]
298.15 K, 101.33 kPa, x1 = 0.5 | 88.2

OCCOCCOCCO + CCCC(C)O
viscosity [mPa·s], 100 kPa
Conditions | x1 = 0.0809 | x1 = 0.16 | x1 = 0.2401 | x1 = 0.35 | x1 = 0.44 | x1 = 0.5601 | x1 = 0.6499 | x1 = 0.7401 | x1 = 0.8501 | x1 = 0.9401
293.15 K | 4.98 | 6.16 | 7.62 | 10.23 | 12.89 | 17.73 | 22.03 | 27.33 | 34.9 | 42.55
298.15 K | 4.35 | 5.48 | 6.71 | 8.84 | 10.83 | 14.35 | 17.55 | 21.36 | 27.16 | 32.88
303.15 K | 3.57 | 4.56 | 5.62 | 7.33 | 8.95 | 11.76 | 14.33 | 17.37 | 21.79 | 26.06
308.15 K | 3.03 | 3.84 | 4.79 | 6.2 | 7.55 | 9.77 | 11.78 | 14.16 | 17.58 | 21.01
313.15 K | 2.48 | 3.16 | 3.93 | 5.1 | 6.26 | 8.19 | 9.89 | 11.86 | 14.62 | 17.22
318.15 K | 2.24 | 2.86 | 3.49 | 4.48 | 5.4 | 6.92 | 8.23 | 9.81 | 12.04 | 14.18
323.15 K | 1.94 | 2.47 | 3.03 | 3.87 | 4.64 | 5.92 | 6.99 | 8.27 | 10.15 | 11.91
